{
  "source": "paper PMC4680881",
  "about": "(Scientific Reports, 2015)",
  "key": {"Aβ (1–42) fibrils": {"molecular_target": "Aβ (1–42) fibrils", "conditions": "cited from earlier work"}, "rMoPrP aggregates [1]": {"molecular_target": "T1, rMoPrP aggregates (Mus musculus, UniProt P04925)", "T1 sequence (P04925 23-231 limits assumed)": "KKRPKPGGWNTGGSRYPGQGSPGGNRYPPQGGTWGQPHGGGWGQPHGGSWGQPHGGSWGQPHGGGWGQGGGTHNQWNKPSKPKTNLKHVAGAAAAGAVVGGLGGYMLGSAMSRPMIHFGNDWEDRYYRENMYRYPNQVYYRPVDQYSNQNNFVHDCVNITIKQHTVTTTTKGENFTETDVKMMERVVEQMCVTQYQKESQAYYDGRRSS", "assay": "biochemical", "type": "binding"}, "rMoPrP aggregates [2]": {"molecular_target": "T1, rMoPrP aggregates", "assay": "biochemical", "type": "binding", "remark": "listed apart in the source"}, "PrP^Sc deposits [3]": {"molecular_target": "T2, PrP^Sc deposits (Mus musculus, UniProt P04925)", "T2 sequence (P04925 23-230 limits assumed)": "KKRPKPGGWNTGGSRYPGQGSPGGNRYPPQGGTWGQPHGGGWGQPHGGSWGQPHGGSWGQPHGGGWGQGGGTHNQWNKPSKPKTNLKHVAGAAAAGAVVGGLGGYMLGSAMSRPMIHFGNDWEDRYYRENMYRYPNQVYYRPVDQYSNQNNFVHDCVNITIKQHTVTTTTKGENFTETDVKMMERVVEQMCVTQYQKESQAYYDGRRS", "type": "in vivo"}, "PrP^Sc deposits [4]": {"molecular_target": "T2, PrP^Sc deposits", "type": "in vivo", "remark": "listed apart in the source"}, "Aβ aggregates": {"system": "Aβ aggregates", "conditions": "cited from earlier work"}, "PrP^Sc deposits [5]": {"molecular_target": "T2, PrP^Sc deposits", "conditions": "100 μM compound; for Fluorescence staining: brain sections from mock-infected mice; for Fluorescence staining of PrP^Sc deposits: brain slices from mBSE-infected mice"}, "amyloid plaques": {"system": "amyloid plaques", "conditions": "cited from earlier work"}, "PrP^Sc deposits [6]": {"molecular_target": "T2, PrP^Sc deposits"}, "[7]": {"conditions": "mouse, in vivo; cited from earlier work"}},
  "note": "Values joined by “and” are separate entries in the source; they are usually repeats but may differ in a detail not shown here. Equal values may be shown once. Read-outs that look alike come from different tables or passages of the source.",
  "data": [
    {"smiles": "Ic1ccc2nc(-c3ccc(-c4ccn[nH]4)cc3)cn2c1", "note": "[^125I-DRM106]", "values": [
      {"measurement": "Kd", "setting": "Aβ (1–42) fibrils", "value": 10.1, "unit": "nM"}
    ]},
    {"smiles": "O=c1cc(/C=C/c2ccc(OCCO)cc2)oc2ccc(I)cc12", "note": "[SC-OEtOH, (E)-6-Iodo-2-(4-hydroxyethoxystyryl)-chromone]", "values": [
      {"measurement": "Ki", "setting": "rMoPrP aggregates [1]", "value": "221 ± 46.7", "unit": "nM"}
    ]},
    {"smiles": "CN(C)c1ccc(/C=C/C(=O)c2ccc([125I])cc2)cc1", "note": "[[^125I]CL-NMe2]", "values": [
      {"measurement": "Bmax", "setting": "rMoPrP aggregates [2]", "value": 16.7, "unit": "pmol/nmol protein"},
      {"measurement": "Kd", "setting": "rMoPrP aggregates [2]", "value": "246 nM and 224 nM"}
    ]},
    {"smiles": "COc1ccc(/C=C/c2cc(=O)c3cc([123I])ccc3o2)cc1", "note": "[[^123I]SC-OMe]", "values": [
      {"measurement": "%SUV", "setting": "PrP^Sc deposits [3]; early period (15–48 min), PBS-injected ipsilateral hemisphere of mock-infected mice", "value": 13.4, "unit": "%SUV"},
      {"measurement": "%SUV", "setting": "PrP^Sc deposits [3]; early period (15–48 min), PrP^Sc-positive upper right hemisphere of mBSE-infected mouse", "value": 46.5, "unit": "%SUV"},
      {"measurement": "%SUV", "setting": "PrP^Sc deposits [3]; early period (15–48 min), contralateral site of mBSE-infected mice", "value": 23.3, "unit": "%SUV"},
      {"measurement": "%SUV", "setting": "PrP^Sc deposits [3]; late period (50–85 min), contralateral site of mBSE-infected mice", "value": 3.7, "unit": "%SUV"},
      {"measurement": "%SUV", "setting": "PrP^Sc deposits [3]; late period (50–85 min), ipsilateral site of mock-infected mice", "value": 3.5, "unit": "%SUV"},
      {"measurement": "%SUV", "setting": "PrP^Sc deposits [3]; late period (50–85 min), right hemisphere of mBSE-infected mice", "value": 7.5, "unit": "%SUV"},
      {"measurement": "Ex vivo autoradiography, accumulation in PrP^Sc-positive regions", "setting": "PrP^Sc deposits [4]; mBSE-infected mice", "value": "significant [^123I]SC-OMe accumulation"},
      {"measurement": "Ex vivo autoradiography, accumulation in contralateral site", "setting": "PrP^Sc deposits [4]; mBSE-infected mice", "value": "no significant accumulation"},
      {"measurement": "Ex vivo autoradiography, binding in mock-infected mouse brain", "setting": "PrP^Sc deposits [4]; mock-infected mice", "value": "low signals"}
    ]},
    {"smiles": "CN(C)c1ccc(-c2cc(=O)c3cc([125I])ccc3o2)cc1", "note": "[[^125I]FL-NMe2]", "values": [
      {"measurement": "Bmax", "setting": "rMoPrP aggregates [2]", "value": 11.2, "unit": "pmol/nmol protein"},
      {"measurement": "Kd", "setting": "rMoPrP aggregates [2]", "value": 201, "unit": "nM"}
    ]},
    {"smiles": "CN(C)c1ccc(-c2cc(=O)c3cc(I)ccc3o2)cc1", "note": "[FL-NMe2, 6-Iodo-4′-dimethyaminoflavone]", "values": [
      {"measurement": "Binding affinity for Aβ aggregates", "setting": "Aβ aggregates", "value": "high binding affinities"},
      {"measurement": "Fluorescence staining", "setting": "PrP^Sc deposits [5]", "value": "Only background signals"},
      {"measurement": "Staining of amyloid plaques", "setting": "amyloid plaques", "value": "clearly stained amyloid plaques"}
    ]},
    {"smiles": "CNc1ccc(C=Cc2cc(=O)c3cc([125I])ccc3o2)cc1", "note": "[[^125I]SC-NHMe]", "values": [
      {"measurement": "In vitro autoradiography, distribution of radioactivity", "setting": "PrP^Sc deposits [6]; brain sections of mock-infected mice", "value": "homogeneous distribution of radioactivity"},
      {"measurement": "In vitro autoradiography, signal in PrP^Sc deposit region", "setting": "PrP^Sc deposits [6]; mBSE-infected mice, right corpus callosum region", "value": "high level of background and no significant accumulation of prion deposits"}
    ]},
    {"smiles": "[125I]c1ccc2nc(-c3ccc(-c4ccn[nH]4)cc3)cn2c1", "note": "[^125I-DRM106]", "values": [
      {"measurement": "Bmax", "setting": "Aβ (1–42) fibrils", "value": 34.3, "unit": "pmol/nmol"}
    ]},
    {"smiles": "CN(C)c1ccc(C=C2Oc3ccc(I)cc3C2=O)cc1", "note": "[AR-NMe2, 2-[(4-Dimethylaminophenyl)methylene]-5-iodo-3(2H)-benzofuranone]", "values": [
      {"measurement": "Binding affinity for Aβ aggregates", "setting": "Aβ aggregates", "value": "high binding affinities"},
      {"measurement": "Fluorescence staining", "setting": "PrP^Sc deposits [5]", "value": "Only background signals"},
      {"measurement": "Staining of amyloid plaques", "setting": "amyloid plaques", "value": "clearly stained amyloid plaques"}
    ]},
    {"smiles": "O=c1cc(/C=C/c2ccc(O)cc2)oc2ccc(I)cc12", "note": "[SC-OH, (E)-6-Iodo-2-(4-hydroxylstyryl)-chromone]", "values": [
      {"measurement": "Ki", "setting": "rMoPrP aggregates [1]", "value": "35 ± 3.72", "unit": "nM"}
    ]},
    {"smiles": "CN(C)c1ccc(/C=C/c2cc(=O)c3cc([125I])ccc3o2)cc1", "note": "[[^125I]SC-NMe2]", "values": [
      {"measurement": "fold higher binding affinity compared with [125I]AR-NMe2", "setting": "rMoPrP aggregates [2]", "value": 3.5, "unit": "fold"},
      {"measurement": "Kd", "setting": "rMoPrP aggregates [2]", "value": "24.5 nM and 36.7 nM"}
    ]},
    {"smiles": "COc1ccc(/C=C/c2cc(=O)c3cc(I)ccc3o2)cc1OC", "note": "[SC-(OMe)2, (E)-6-Iodo-2-(3,4-dimethoxystyryl) chromone]", "values": [
      {"measurement": "Ki", "setting": "rMoPrP aggregates [1]", "value": "26.6 ± 1.48", "unit": "nM"},
      {"measurement": "Fluorescence staining", "setting": "PrP^Sc deposits [5]", "value": "no significant signals"},
      {"measurement": "Fluorescence staining of PrP^Sc deposits", "setting": "PrP^Sc deposits [5]", "value": "clear fluorescence images"}
    ]},
    {"smiles": "CNc1ccc(/C=C/c2cc(=O)c3cc(I)ccc3o2)cc1", "note": "[SC-NHMe, (E)-6-Iodo-2-(4-(methylamino)styryl)-chromone]", "values": [
      {"measurement": "Ki", "setting": "rMoPrP aggregates [1]", "value": "17 ± 5.41", "unit": "nM"},
      {"measurement": "Fluorescence staining", "setting": "PrP^Sc deposits [5]", "value": "no significant signals"},
      {"measurement": "Fluorescence staining of PrP^Sc deposits", "setting": "PrP^Sc deposits [5]", "value": "clear fluorescence images"}
    ]},
    {"smiles": "Nc1ccc(/C=C/c2cc(=O)c3cc(I)ccc3o2)cc1", "note": "[SC-NH2, (E)-6-Iodo-2-(4-aminostyryl)-chromone]", "values": [
      {"measurement": "Ki", "setting": "rMoPrP aggregates [1]", "value": "58.7 ± 5.93", "unit": "nM"},
      {"measurement": "fold lower binding affinity than SC-OMe", "setting": "rMoPrP aggregates [1]", "value": 2.8, "unit": "fold"}
    ]},
    {"smiles": "CN(C)c1ccc(/C=C/c2cc(=O)c3cc(I)ccc3o2)cc1", "note": "[SC-NMe2, (E)-6-Iodo-2-(4-(dimethylamino)styryl)-chromone]", "values": [
      {"measurement": "Bmax", "setting": "rMoPrP aggregates [2]", "value": 36.3, "unit": "pmol/nmol protein"},
      {"measurement": "Kd", "setting": "rMoPrP aggregates [2]", "value": 24.5, "unit": "nM"},
      {"measurement": "Binding affinity for Aβ aggregates", "setting": "Aβ aggregates", "value": "high binding affinities"},
      {"measurement": "Fluorescence staining", "setting": "PrP^Sc deposits [5]", "value": "Only background signals"},
      {"measurement": "Fluorescence staining of PrP^Sc deposits", "setting": "PrP^Sc deposits [5]", "value": "clearly labelled PrP^Sc deposits"},
      {"measurement": "Brain uptake and washout", "setting": "[7]", "value": "low brain uptake and slow washout"},
      {"measurement": "Staining of amyloid plaques", "setting": "amyloid plaques", "value": "clearly stained amyloid plaques"}
    ]},
    {"smiles": "CN(C)c1ccc(/C=C2\\Oc3ccc([125I])cc3C2=O)cc1", "note": "[[^125I]AR-NMe2]", "values": [
      {"measurement": "Bmax", "setting": "rMoPrP aggregates [2]", "value": 34.9, "unit": "pmol/nmol protein"},
      {"measurement": "Kd", "setting": "rMoPrP aggregates [2]", "value": "125 nM and 119 nM"}
    ]},
    {"smiles": "COc1ccc(/C=C/c2cc(=O)c3cc(I)ccc3o2)cc1", "note": "[SC-OMe, (E)-6-Iodo-2-(4-methoxystyryl) chromone]", "values": [
      {"measurement": "Ki", "setting": "rMoPrP aggregates [1]", "value": "20.8 ± 0.69", "unit": "nM"},
      {"measurement": "Fluorescence staining", "setting": "PrP^Sc deposits [5]", "value": "no significant signals"},
      {"measurement": "Fluorescence staining of PrP^Sc deposits", "setting": "PrP^Sc deposits [5]", "value": "clear fluorescence images"}
    ]},
    {"smiles": "CN(C)c1ccc(/C=C/C(=O)c2ccc(I)cc2)cc1", "note": "[CL-NMe2, (E)-3-(4-(Dimethylamino)phenyl)-1-(4-iodophenyl) prop-2-en-1-one]", "values": [
      {"measurement": "Binding affinity for Aβ aggregates", "setting": "Aβ aggregates", "value": "high binding affinities"},
      {"measurement": "Fluorescence staining", "setting": "PrP^Sc deposits [5]", "value": "Only background signals"},
      {"measurement": "Staining of amyloid plaques", "setting": "amyloid plaques", "value": "clearly stained amyloid plaques"}
    ]}
  ]
}
